Measurements taken from patent US10966954B2, “Electrophilically enhanced phenolic compounds for treating inflammatory related diseases and disorders” (priority 2016, dated 2021).

Tests used:
Assay in all cases: microbe, parasite or virus in culture
Type in all cases: cell-based
A/Perth/265/09 (H1N1) = conditions: Influenza A virus, H1N1, MDCK, 168 h
A/HK/1/68 (H3N2) = conditions: Influenza A virus, H3N2, MDCK, 168 h
A/TX/36/91 (H1N1) = conditions: Influenza A virus, H1N1, MDCK, 168 h

How did the EC50 (A/Perth/265/09 (H1N1)) turn out when CC(=O)N[C@H]1[C@H]([C@H](O)[C@H](O)CO)OC(C(=O)O)=C[C@@H]1N=C(N)N [Zanamivir] was run?
The EC50 was 1.52 µM.

What about the EC50 (A/HK/1/68 (H3N2)) of the same compound?
The EC50 was 27.7 µM.

And the EC50 (A/TX/36/91 (H1N1))?
The EC50 was 0.731 µM.
